Our source for the IC50 and IC50 of inhibition of PKA kinase activity (phosphorylation of Lissamine Rhodamine-labeled Kemptide, Fe(III) fluorescence quench readout) values is patent US7306928B2, “Homogenous assay for enzymatic activity” (Pierce Biotechnology, Inc., priority 2002, dated 2007).

For one assay, the target named is PP2A Phosphatase (Homo sapiens, UniProt P67775). Briefly: Okadaic acid PP2A phosphatase inhibition, Fe(III) fluorescence quench assay. Particulars: PP2A 22 milli Units, 30 μM Lissamine Rhodamine phospho Kemptide, 60 minutes, 96-well; read-out: calculated IC50. The class given is biochemical. From the text:
Okadaic Acid, another phosphatase inhibitor, solubilized in DMSO, was titrated in triplicate in phosphatase dilution buffer over 24 wells in white 96-well polystyrene COSTAR plate. […] The results are illustrated in FIG. 10.

Assay [1] addresses PKA (protein kinase A) catalytic unit, Promega. Briefly: cell-based or functional assay.

Chain of PP2A Phosphatase (P67775 whole entry): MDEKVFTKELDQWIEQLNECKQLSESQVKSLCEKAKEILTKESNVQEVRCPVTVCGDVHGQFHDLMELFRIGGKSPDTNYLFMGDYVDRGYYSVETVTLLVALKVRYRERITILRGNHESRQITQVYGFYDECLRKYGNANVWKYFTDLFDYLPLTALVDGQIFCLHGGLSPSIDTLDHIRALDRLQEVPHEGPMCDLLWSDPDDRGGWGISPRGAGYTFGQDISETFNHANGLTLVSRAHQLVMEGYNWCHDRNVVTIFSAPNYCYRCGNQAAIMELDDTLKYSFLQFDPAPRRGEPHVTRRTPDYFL

As usually defined, the IC50 is the concentration needed to halve the response being measured. As to `C=C1[C@@H](O)[C@@H]2O[C@]3(CC[C@H](/C=C/[C@@H](C)[C@@H]4CC(C)=C[C@@]5(O[C@H](C[C@@](C)(O)C(=O)O)CC[C@H]5O)O4)O3)CC[C@H]2O[C@@H]1[C@@H](O)C[C@H](C)[C@H]1O[C@@]2(CCCCO2)CC[C@H]1C` [Okadaic Acid], the IC50 on PP2A Phosphatase was 1.5 nM.

Consider “PKI, a known synthetic peptide inhibitor of PKA”, for which the IC50 of inhibition of PKA kinase activity (phosphorylation of Lissamine Rhodamine-labeled Kemptide, Fe(III) fluorescence quench readout) in assay [1] turned out to be 2.6 nM.
